Laboratory results: patent US10946093B2, “Methods of treating cancer using PD-1 axis binding antagonists and MEK inhibitors” (Genentech, Inc., priority 2014, dated 2021)

Tested on: Vemurafenib-progressing melanoma tumors
Assay: Melanoma GEM model B-raf V600E; PTEN fl/fl; TyCreER, Vemurafenib-progressing tumors
Type: in vivo, mouse
Details: 2nd line after first line Vemurafenib; GDC-0973 7.5 mg/kg PO qd; anti-PDL1 10 mg/kg IP three times weekly
Description: A melanoma GEM model B-raf^V600E; PTEN^fl/fl; TyCreER was used.
Animals were enrolled into the study once their tumors reached a size greater than or equal to 400 mm^3.
Prior to beginning treatment, each mouse received a biopsy of a melanoma tumor. After the biopsy, mice were allowed to recover for up to one week prior to receiving treatment. Mice were assigned into initial treatment groups (n=20), and treatment commenced at day 0.
When animals in any group reached ˜2000 mm^3, the tumors were biopsied a second time. After the biopsy procedure, mice recovered for up to one week prior to receiving further therapeutic treatment.
Mice were weighed and tumors measured at least once a week until study termination. Mice received treatment each day until a mean tumor volume of 2500 mm^3 was achieved. Mice were then euthanized, and melanoma tumors were collected for histology and assessing molecular changes. Mice were perfused under anesthesia at euthanasia.
Throughout the study, mice were monitored for clinical appearance (body condition, coat appearance, posture, labored breathing, etc.) at least 2 times a week, with increasing frequency, up to daily, depending on severity of adverse clinical signs observed. Moribund animals were euthanized. Mice with a body condition score <2 were euthanized.

O=C(c1ccc(F)c(F)c1Nc1ccc(I)cc1F)N1CC(O)([C@@H]2CCCCN2)C1 [Cobimetinib, Methanone, [3,4-difluoro-2-[(2-fluoro-4-iodophenyl)amino]phenyl][3-hydroxy-3-(2S)-2-piperidinyl-1-azetidinyl]-]
effect on tumor growth (percent tumor volume change over time, FIG. 1): initial tumor regression, but this response was not sustained and tumor re-growth was observed
